According to ChEMBL document CHEMBL2046310, “Synthesis and biological evaluation of novel 4β-(1,3,4-oxadiazole-2-amino)-podophyllotoxin derivatives” (Bioorg Med Chem Lett, 2012):
Active and inactive are the calls of the source. No cut-off for these calls is given here.

Columns and labels:
A549 = assay: Cytotoxicity against human A549 cells after 72 hrs by MTT assay; assay type: functional, cell-based; conditions: A549, 72 h
SGC-7901 = assay: Cytotoxicity against human SGC7901 cells after 72 hrs by MTT assay; assay type: functional, cell-based; conditions: SGC-7901, 72 h
HepG2 [1] = assay: cells; conditions: Homo sapiens, HepG2, 72 h
Description: (§1) Cytotoxicity against human HepG2 cells after 72 hrs by MTT assay

Vero = assay: Cytotoxicity against african green monkey Vero cells after 72 hrs by MTT assay; assay type: cell-based; conditions: Chlorocebus sabaeus
L929 = assay: Cytotoxicity against mouse L929 cells after 72 hrs by MTT assay; assay type: cell-based; conditions: L929, 72 h
DU-145 = assay: Cytotoxicity against human DU145 cells after 72 hrs by MTT assay; assay type: functional, cell-based; conditions: DU-145, 72 h
SH-SY5Y = assay: Cytotoxicity against human SH-SY5Y cells after 72 hrs by MTT assay; assay type: functional, cell-based
HeLa = assay: cells; conditions: Homo sapiens, 72 h
Description: Cytotoxicity against human HeLa cells after 72 hrs by MTT assay

HepG2 [2] = assay: Induction of apoptosis in human HepG2 cells assessed as appearance of apoptotic bodies at 0.25 to 2 uM after 48 hrs by Hoechst staining-based microscopic analysis; assay type: functional, cell-based
HepG2 [3] = assay: Cell cycle arrest in human HepG2 cells assessed as accumulation at subG1 after 48 hrs by propidium iodide staining-based flow cytometric analysis; assay type: functional
HepG2 [4] = assay: Cytotoxicity against human HepG2 cells by MTT assay; assay type: functional, cell-based; conditions: TDE = time-dependent effect
HepG2 [5] = assay: Cell cycle arrest in human HepG2 cells assessed as accumulation at S phase after 48 hrs by propidium iodide staining-based flow cytometric analysis; assay type: functional
HepG2 [6] = assay: Induction of apoptosis in human HepG2 cells assessed as late apoptotic to necrotic cells at 1 uM after 48 hrs by annexinV/propidium iodide staining-based flow cytometric analysis (reference value: 1.61%); assay type: functional
HepG2 [7] = assay: Induction of apoptosis in human HepG2 cells assessed as late apoptotic to necrotic cells at 0.25 uM after 48 hrs by annexinV/propidium iodide staining-based flow cytometric analysis (reference value: 1.61%); assay type: functional
HepG2 [8] = assay: Induction of apoptosis in human HepG2 cells assessed as early apoptotic cells at 1 uM after 48 hrs by annexinV/propidium iodide staining-based flow cytometric analysis (reference value: 0.47%); assay type: functional
HepG2 [9] = assay: Induction of apoptosis in human HepG2 cells assessed as early apoptotic cells at 0.25 uM after 48 hrs by annexinV/propidium iodide staining-based flow cytometric analysis (reference value: 0.47%); assay type: functional
HepG2 [10] = assay: Inhibition of DNA topoisomerase 2beta mRNA expression in human HepG2 cells at 0.5 to 8 uM after 6 hrs by RT-PCR analysis; assay type: functional, cell-based
HepG2 [11] = assay: Induction of apoptosis in human HepG2 cells assessed as early apoptotic cells at 0.5 uM after 48 hrs by annexinV/propidium iodide staining-based flow cytometric analysis (reference value: 0.47%); assay type: functional
HepG2 [12] = assay: Induction of apoptosis in human HepG2 cells assessed as […] of nuclear fragment at 0.25 to 2 uM after 48 hrs by Hoechst staining-based microscopic analysis; assay type: functional, cell-based
HepG2 [13] = assay: Induction of apoptosis in human HepG2 cells assessed as late apoptotic to necrotic cells at 0.5 uM after 48 hrs by annexinV/propidium iodide staining-based flow cytometric analysis (reference value: 1.61%); assay type: functional
HepG2 [14] = assay: Induction of apoptosis in human HepG2 cells assessed as early apoptotic cells at 2 uM after 48 hrs by annexinV/propidium iodide staining-based flow cytometric analysis (reference value: 0.47%); assay type: functional
HepG2 [15] = conditions: Homo sapiens
Description: as §1

HepG2 [16] = assay: Induction of apoptosis in human HepG2 cells assessed as late apoptotic to necrotic cells at 2 uM after 48 hrs by annexinV/propidium iodide staining-based flow cytometric analysis (reference value: 1.61%); assay type: functional
HepG2 [17] = assay: Inhibition of DNA topoisomerase 2alpha protein expression in human HepG2 cells at 0.5 to 1 uM after 48 hrs by Western blot analysis; assay type: functional, cell-based

| Compound | IC50 (A549) | IC50 (SGC-7901; read-out: IC50) | IC50 (HepG2 [1]) | IC50 (Vero) | IC50 (L929) | IC50 (DU-145) | IC50 (SH-SY5Y) | IC50 (HeLa) | other results |
| --- | --- | --- | --- | --- | --- | --- | --- | --- | --- |
| COc1ccc(-c2nnc(N[C@@H]3c4cc5c(cc4[C@@H](c4cc(OC)c(OC)c(OC)c4)[C@H]4C(=O)OC[C@@H]43)OCO5)o2)cc1 | 53.7 µM | > 100 µM | 27.9 µM | 7.43 µM | 18.2 µM | 76.1 µM | 7.39 µM | 17.7 µM | – |
| COc1cc([C@@H]2c3cc4c(cc3[C@@H](Nc3nnc(-c5ccc([N+](=O)[O-])cc5)o3)[C@H]3COC(=O)[C@H]23)OCO4)cc(OC)c1OC | – | > 100 µM | > 100 µM | – | > 100 µM | > 100 µM | 16.6 µM | > 100 µM | – |
| COc1cc([C@@H]2c3cc4c(cc3[C@@H](Nc3nnc(-c5cccnc5)o3)[C@H]3COC(=O)[C@H]23)OCO4)cc(OC)c1OC | > 100 µM | > 100 µM | 72.8 µM | > 100 µM | 54.6 µM | > 100 µM | 22.5 µM | > 100 µM | – |
| COc1cc([C@@H]2c3cc4c(cc3[C@H](O)[C@H]3COC(=O)[C@H]23)OCO4)cc(OC)c1OC [PODOFILOX] | 13.6 µM | 2.95 µM | 2.27 µM | 1.78 µM | 1.37 µM | > 100 µM | 2.54 µM | 7.58 µM | – |
| COc1cc([C@@H]2c3cc4c(cc3[C@@H](Nc3nnc(-c5ccco5)o3)[C@H]3COC(=O)[C@H]23)OCO4)cc(OC)c1OC | 69.2 µM | – | 38.8 µM | > 100 µM | > 100 µM | 35.4 µM | 29.5 µM | 58.9 µM | – |
| COc1cc([C@@H]2c3cc4c(cc3[C@@H](Nc3nnc(-c5ccncc5)o3)[C@H]3COC(=O)[C@H]23)OCO4)cc(OC)c1OC | > 100 µM | > 100 µM | 96.6 µM | > 100 µM | 20.5 µM | > 100 µM | 41.5 µM | > 100 µM | – |
| COc1cc([C@@H]2c3cc4c(cc3[C@@H](O[C@@H]3O[C@@H]5CO[C@@H](C)O[C@H]5[C@H](O)[C@H]3O)[C@H]3COC(=O)[C@H]23)OCO4)cc(OC)c1O [ETOPOSIDE] | 10.1 µM | 12.1 µM | 5.48 µM | 31.1 µM | 1 µM | 64.3 µM | 5.37 µM | 96.3 µM | – |
| COc1cc([C@@H]2c3cc4c(cc3[C@@H](Nc3nnc(C)o3)[C@H]3COC(=O)[C@H]23)OCO4)cc(OC)c1O | > 100 µM | 9.76 µM | 17.9 µM | 46.1 µM | 4.82 µM | 60.6 µM | 4.61 µM | 18.8 µM | – |
| COc1cc([C@@H]2c3cc4c(cc3[C@@H](Nc3nnc(C)o3)[C@H]3COC(=O)[C@H]23)OCO4)cc(OC)c1OC | > 100 µM | 38.1 µM | 1.51 µM | 5.49 µM | 19.6 µM | > 100 µM | 14.7 µM | 2.68 µM | Activity (HepG2 [2]): Active; Activity (HepG2 [3]): Dose-dependent effect; inhibition (HepG2 [4]): tde; Activity (HepG2 [5]): Dose-dependent effect; Activity (HepG2 [6]): 9.51%; Activity (HepG2 [7]): 1.31%; Activity (HepG2 [8]): 8.03%; Activity (HepG2 [9]): 0.62%; inhibition (HepG2 [10]): Active; Activity (HepG2 [11]): 1.45%; Activity (HepG2 [12]): Active; Activity (HepG2 [13]): 2.77%; Activity (HepG2 [14]): 20.68%; inhibition (HepG2 [15]): Dose-dependent effect; Activity (HepG2 [16]): 30.27%; inhibition (HepG2 [17]): Active |
| COc1cc([C@@H]2c3cc4c(cc3[C@@H](Nc3nnco3)[C@H]3COC(=O)[C@H]23)OCO4)cc(OC)c1OC | > 100 µM | > 100 µM | 11.8 µM | 15.4 µM | 43.3 µM | 11.3 µM | 25.8 µM | > 100 µM | – |
| COc1cc([C@@H]2c3cc4c(cc3[C@@H](Nc3nnc(-c5ccccc5)o3)[C@H]3COC(=O)[C@H]23)OCO4)cc(OC)c1OC | – | > 100 µM | 74.2 µM | > 100 µM | > 100 µM | > 100 µM | 26.9 µM | 85.3 µM | – |
| O=c1[nH]cc(F)c(=O)[nH]1 [FLUOROURACIL] | – | – | 32.2 µM | > 100 µM | 1.38 µM | 12.3 µM | 1.09 µM | 16 µM | IC50 (SGC-7901): 14.5 µM |
| COc1cc([C@@H]2c3cc4c(cc3[C@@H](Nc3nnc(-c5cccs5)o3)[C@H]3COC(=O)[C@H]23)OCO4)cc(OC)c1OC | > 100 µM | 56.6 µM | 38.8 µM | > 100 µM | 70.9 µM | > 100 µM | 20 µM | 42.5 µM | – |
